Our source for the relative viability values is the supplement of paper PMC10883282.

SMILES strings stand for the structures. ± gives the standard deviation of the averaged measurements.

This experiment has as its system RD. Description: relative viability vs DMSO control (72 h) (fraction); higher = more viable cells. An outline of the steps:
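Plates held 72 h at 37 °C and 5% CO2 contained sarcoma cell lines seeded in 384-well format to reach 80–90% confluence, plus 2.5 µl of serially diluted compound added after 24 h. Source plate concentrations ran from 10 mM to 0.0002 mM, with 0.1% DMSO as vehicle and a 5 µM positive control. Percent growth from ATPLite readings, averaged over up to triplicate wells, gave relative viability. Values were rescaled with 1 as full and 0 as none.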

The molecule `CC(C)NC(=O)C1CCC(n2c(NC(=O)c3ccc(F)cc3)nc3ccc(CN4CCC(C(C)(C)O)CC4)cc32)CC1` (centres undefined) [Belizatinib] returned a relative viability (0.00017 µM) of 1.1 ± 0.05; a relative viability (0.00051 µM) of 1.09 ± 0.06; a relative viability (0.00152 µM) of 1.08 ± 0.079; a relative viability (0.00457 µM) of 1.09 ± 0.02; a relative viability (0.01372 µM) of 1.09 ± 0.041; a relative viability (0.04115 µM) of 1.09 ± 0.025. The relative viability by setting is: (0.1235 µM) 1 ± 0.014; (0.3704 µM) 0.844 ± 0.058; (1.111 µM) 0.456 ± 0.027; (3.333 µM) 0.268 ± 0.0066; (10 µM) 0.122 ± 0.011.

In the case of `C=CC(=O)N1CCC[C@@H](n2nc(-c3ccc(Oc4ccccc4)cc3)c3c(N)ncnc32)C1` [Ibrutinib], the relative viability was 1.08 ± 0.04 (0.00017 µM); 1.11 ± 0.053 (0.00051 µM); 1.09 ± 0.032 (0.00152 µM); 1.13 ± 0.07 (0.00457 µM); 1.14 ± 0.063 (0.01372 µM); 1.12 ± 0.054 (0.04115 µM). Moreover, the relative viability by setting is: (0.1235 µM) 1.15 ± 0.062; (0.3704 µM) 1.15 ± 0.079; (1.111 µM) 1.14 ± 0.083; (3.333 µM) 1.13 ± 0.037; (10 µM) 0.984 ± 0.058.

On to `O=C(Cc1ccc(-c2ccc(OCCN3CCOCC3)cc2)cn1)NCc1ccccc1` [KX2-391], for which the relative viability runs as follows: (0.00017 µM) 1.03 ± 0.04; (0.00051 µM) 1.07 ± 0.055; (0.00152 µM) 1.08 ± 0.04; (0.00457 µM) 1.07 ± 0.066; (0.01372 µM) 1.02 ± 0.022; (0.04115 µM) 0.633 ± 0.022. Moreover, the relative viability was determined as 0.346 ± 0.077 (0.1235 µM); 0.296 ± 0.015 (0.3704 µM); 0.304 ± 0.0065 (1.111 µM); 0.308 ± 0.027 (3.333 µM); 0.286 ± 0.034 (10 µM).

Regarding `CC(=O)Nc1cccc(-n2c(=O)n(C3CC3)c(=O)c3c(Nc4ccc(I)cc4F)n(C)c(=O)c(C)c32)c1` [Trametinib], the relative viability by setting is: (0.00017 µM) 1.08 ± 0.027; (0.00051 µM) 1.07 ± 0.064; (0.00152 µM) 0.971 ± 0.099; (0.00457 µM) 0.838 ± 0.044; (0.01372 µM) 0.669 ± 0.07; (0.04115 µM) 0.608 ± 0.051. For the same molecule, the relative viability amounted to 0.584 ± 0.032 (0.1235 µM); 0.558 ± 0.038 (0.3704 µM); 0.556 ± 0.03 (1.111 µM); 0.523 ± 0.04 (3.333 µM); 0.477 ± 0.022 (10 µM).

For `COc1cc2nccc(Oc3ccc(NC(=O)Nc4cc(C)on4)c(Cl)c3)c2cc1OC` [Tivozanib], the relative viability is 1.12 ± 0.07 (0.00017 µM); 1.12 ± 0.085 (0.00051 µM); 1.13 ± 0.009 (0.00152 µM); 1.13 ± 0.068 (0.00457 µM); 1.135 ± 0.011 (0.01372 µM); 1.14 ± 0.016 (0.04115 µM). Further, the relative viability was 1.14 ± 0.05 (0.1235 µM); 1.18 ± 0.052 (0.3704 µM); 1.169 ± 0.0077 (1.111 µM); 1.17 ± 0.018 (3.333 µM); 0.814 ± 0.019 (10 µM).

`COc1cc2c(cc1O)CCN[C@]21CS[C@@H]2c3c(OC(C)=O)c(C)c4c(c3[C@H](COC1=O)N1[C@@H]2[C@H]2c3c(cc(C)c(OC)c3O)C[C@@H]([C@@H]1O)N2C)OCO4` [Trabectedin]: the relative viability reads like this: (2 pM) 1.08 ± 0.055; (5 pM) 1.08 ± 0.068; (15 pM) 1.08 ± 0.048; (50 pM) 1 ± 0.045; (0.00014 µM) 0.678 ± 0.022; (0.00041 µM) 0.166 ± 0.14. Moreover, the relative viability is, setting by setting: (0.0012 µM) 0.158 ± 0.0037; (0.0037 µM) 0.128 ± 0.0033; (0.011 µM) 0.104 ± 0.01; (200 fM) 1.1 ± 0.043; (600 fM) 1.08 ± 0.015.

`CNC(=O)c1cc(Oc2ccc(NC(=O)Nc3ccc(Cl)c(C(F)(F)F)c3)c(F)c2)ccn1` [Regorafenib]: the relative viability is 1.06 ± 0.017 (0.00017 µM); 1.11 ± 0.028 (0.00051 µM); 1.13 ± 0.052 (0.00152 µM); 1.14 ± 0.089 (0.00457 µM); 1.13 ± 0.075 (0.01372 µM); 1.14 ± 0.063 (0.04115 µM). For the same molecule, the relative viability stood at 1.12 ± 0.04 (0.1235 µM); 1.01 ± 0.058 (0.3704 µM); 0.877 ± 0.069 (1.111 µM); 0.787 ± 0.05 (3.333 µM); 0.558 ± 0.048 (10 µM).

`C[C@@H]1CCN(C(=O)CC#N)C[C@@H]1N(C)c1ncnc2[nH]ccc12` [Tofacitinib]: the relative viability stood at 1.05 ± 0.051 (0.00017 µM); 1.08 ± 0.064 (0.00051 µM); 1.1 ± 0.072 (0.00152 µM); 1.12 ± 0.055 (0.00457 µM); 1.13 ± 0.068 (0.01372 µM); 1.13 ± 0.063 (0.04115 µM). Also, the relative viability came out at 1.13 ± 0.09 (0.1235 µM); 1.11 ± 0.029 (0.3704 µM); 1.14 ± 0.065 (1.111 µM); 1.14 ± 0.051 (3.333 µM); 1.13 ± 0.056 (10 µM).

As for `COc1cc2c(Oc3ccc4[nH]c(C)cc4c3F)ncnc2cc1OCCCN1CCCC1` [Cediranib], the relative viability reads like this: (0.00017 µM) 1.09 ± 0.043; (0.00051 µM) 1.1 ± 0.058; (0.00152 µM) 1.09 ± 0.015; (0.00457 µM) 1.15 ± 0.057; (0.01372 µM) 1.09 ± 0.076; (0.04115 µM) 1.13 ± 0.046. The relative viability is, setting by setting: (0.1235 µM) 1.1 ± 0.03; (0.3704 µM) 1.04 ± 0.06; (1.111 µM) 1 ± 0.077; (3.333 µM) 1.03 ± 0.13; (10 µM) 0.962 ± 0.078.
